# pKi: −log10 of the molar value.
# Molecular target: T1, CCK-B receptor (Mus musculus, UniProt P56481)
# T1 construct: from tissue; host or cells: cerebral cortex membranes of male CFLP mice
# T1 sequence (P56481 1-453): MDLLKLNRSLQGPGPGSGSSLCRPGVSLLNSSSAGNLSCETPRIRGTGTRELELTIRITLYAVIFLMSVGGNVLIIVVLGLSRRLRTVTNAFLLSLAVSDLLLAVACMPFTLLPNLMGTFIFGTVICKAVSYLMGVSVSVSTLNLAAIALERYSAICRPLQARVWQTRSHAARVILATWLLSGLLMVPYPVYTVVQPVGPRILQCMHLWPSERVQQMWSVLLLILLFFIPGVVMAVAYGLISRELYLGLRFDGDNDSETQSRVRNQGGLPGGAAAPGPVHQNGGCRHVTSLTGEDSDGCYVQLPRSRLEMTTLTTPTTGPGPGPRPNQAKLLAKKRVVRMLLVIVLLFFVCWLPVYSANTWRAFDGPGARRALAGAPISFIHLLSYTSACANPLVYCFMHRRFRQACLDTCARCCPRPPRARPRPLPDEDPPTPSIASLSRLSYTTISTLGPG
# Test: Displacement of tritiated-pentagastrin binding to mouse cerebral cortical membranes (CCK receptor binding)
# Parameters: species or system male CFLP mice
# Details: displacement of 2 nM tritiated-pentagastrin, Ki by Cheng-Prusoff equation, read-out: Ki, Binding Affinity CCK-B
# Procedure: The biological activity of compounds of the present invention was evaluated employing an initial screening test which rapidly and accurately measured the binding of the tested compound to known CCK receptor sites. […] (See Hays, et al., Neuropeptides 1980;1:53-62; and Satuer, et al., Science 1980;208:1155-6.)
# In this screening test, the cerebral cortices taken from male CFLP mice weighing between 30-40 g were dissected on ice, weighed, and homogenized in 10 volumes of 50 mM Tris-HCl buffer (pH 7.4 at 0-4° C.). The resulting suspension was centrifuged, the supernate was discarded, and the pellet was washed by resuspension in Tris-HCl buffer followed by recentrifugation. The final pellet was resuspended in 20 volumes of […] buffer (pH 7.2 at 23° C.) containing 130 mM NaCl, […], […], […], 5 mg/mL bovine albumin, and bacitracin (0.25 mg/mL).
# In saturation studies, cerebral cortical membranes were incubated at 23° C. for 120 minutes in a final volume of 500 μL of Hepes incubation buffer (pH 7.2) together with 0.2-20 nM tritiated-pentagastrin (Amersham International, England).
# In the displacement experiments, membranes were incubated with a single concentration (2 nM) of ligand, together with increasing concentrations ([…]) of competitive test compound. In each case, the nonspecific binding was defined as that persisting in the presence of the unlabeled octapeptide CCK26-33 (10^-6 M).
# Following incubation, radioactivity bound to membranes was separated from that free in solution by rapid filtration through Whatman GF/B filters and washed three times with 4 mL of ice cold Tris-HCl buffer. Filters from samples incubated with tritiated-pentagastrin were placed in polyethylene vials with 4 mL of scintillation cocktail, and the radioactivity was estimated by liquid scintillation spectrometry (efficiency 47%-52%).
# The specific binding to CCK receptor sites was defined as the total bound tritiated-pentagastrin minus the amount of tritiated-pentagastrin bound in the presence of 10^-6 octapeptide, CCK26-33.
# Saturation curves for specific tritiated-pentagastrin binding to mouse cortical membranes were analyzed by the methods of Scatchard (Ann New York Acad Sci 1949;51:660-72, and Hill, J Physiol 1910;40:IV-VIII), to provide estimates for the maximum number of binding sites (Bmax) and the equilibrium dissociation constant ([…]).
# In displacement experiments, inhibition curves were analyzed by either logit-log plots or the iterative curve fitting computer program ALLFIT (DeLean, Munson, Redbard, 1978) to provide estimates of the IC50 and nH (apparent Hill coefficient) values). (IC50 values were defined as the concentration of test compound required to produce 50% inhibition of specific binding.)
# The inhibition constant (Ki) of the test compound was then calculated according to the Cheng-Prusoff equation: [formula] where [L] is the concentration of radiolabel and Ka is the equilibrium dissociation constant.
row,SMILES,pKi
1,"O=C(Nc1ccc(Cl)cc1)N[C@H](c1ccccc1)[C@H](NC(=O)Nc1ccc(C(F)(F)F)cc1)c1ccccc1 (relative stereo) [Example 10, [R-(R*,R*)] and [S-(R*,R*)]-N-(4-chlorophenyl)-N'-[1,2-diphenyl-2-[[[[4-(trifluoromethyl)phenyl]amino]-carbonyl]amino]ethyl]-urea]",6.43
2,"Cc1ccc(S(=O)(=O)NC(=O)N[C@H](c2ccccc2)[C@H](NC(=O)Nc2ccc(Cl)cc2)c2ccccc2)cc1 (relative stereo) [Example 46, [R-(R*,R*)] and [S-(R*,R*)]-N-[[[2-[[[(4-chlorophenyl)-amino]carbonyl]amino]-1,2-diphenylethyl]amino]-carbonyl]-4-methyl-benzenesulfonamide]",6.73
3,"O=C(Nc1ccc(Cl)cc1)N[C@@H](c1ccccc1)[C@@H](NC(=O)Nc1ccc(C(F)(F)F)cc1)c1ccccc1 [Example 65, (+)-[S-(R*,R*)]-N-(4-chlorophenyl)-N'-[1,2-diphenyl]-2-[[[[4-(trifluoromethyl)phenyl]amino]carbonyl]amino]-ethyl]urea]",6.53
4,"Cc1ccc(S(=O)(=O)NC(=O)N[C@H](c2ccccc2)[C@H](NC(=O)Nc2ccc(C(F)(F)F)cc2)c2ccccc2)cc1 (relative stereo) [Example 14, [S-(R*,R*)] and [R-(R*,R*)]-N-[[[1,2-diphenyl-2-[[[[4-(trifluoromethyl)phenyl]amino]carbonyl]amino]-ethyl]amino]carbonyl]-4-methyl-benzenesulfonamide]",6.73
5,"O=C(Nc1ccc([N+](=O)[O-])cc1)N[C@H](c1ccccc1)[C@H](NC(=O)Nc1ccc(C(F)(F)F)cc1)c1ccccc1 (relative stereo) [Example 15, [S-(R*,R*)] and [R-(R*,R*)]-N-[1,2-diphenyl-2-[[[[4-(trifluoromethyl)phenyl]amino]carbonyl]amino]-ethyl]-N'-(4-nitrophenyl)urea]",6.51
6,"O=C(Nc1ccc(Cl)cc1)N[C@H](c1ccccc1)[C@H](NC(=O)NS(=O)(=O)c1ccccc1)c1ccccc1 (relative stereo) [Example 47, [R-(R*,R*)] and [S-(R*,R*)]-N-[[[2-[[[4-chlorophenyl)-amino]carbonyl]amino]-1,2-diphenylethyl]amino]-carbonyl]benzenesulfonamide]",6.54

# Stronger by pKi, values ahead:
row,pKi,SMILES
1,7.03,"Cc1ccc(S(=O)(=O)NC(=O)N[C@@H](c2ccccc2)[C@@H](NC(=O)Nc2ccc(Cl)cc2)c2ccccc2)cc1 [Example 64, (+)-[S-(R*,R*)]-N-[[[2-[[[(4-chlorophenyl)amino]-carbonyl]amino]-1,2-diphenylethyl]amino]carbonyl]-4-methyl-urea]"
2,6.75,"Cc1ccc(NC(=O)N[C@H](c2ccccc2)[C@H](NC(=O)NS(=O)(=O)c2ccc(C)cc2)c2ccccc2)cc1 (relative stereo) [Example 54, [R-(R*,R*)] and [S-(R*,R*)]-4-methyl-N-[[[2-[[[(4-methylphenyl)amino]carbonyl]amino]-1,2-diphenylethyl]amino]carbonyl]benzenesulfonamide]"
